These are literature values, as cited in article PMC3328449, “Inhibition of Diacylglycerol–Sensitive TRPC Channels by Synthetic and Natural Steroids” (PLoS ONE, 2012).

One data set deals with other TRPC channels. Also on record: method as in PMID 19289841. The note with it: cited from earlier work.
In a further data set the test system is TRPC3. Also on record: method as in PMID 19289841. The note with it: read-out: half maximal inhibitory concentration (IC50), TRPC3; cited from earlier work.

In the case of `CCOC(=O)c1cnn(-c2ccc(NC(=O)C(Cl)=C(Cl)Cl)cc2)c1C(F)(F)F` [Pyr3], the “Effects on other TRPC channels” value with other TRPC channels is “without having effects”. Besides, in the data set on TRPC3, the IC50 is 700 nM.
